Source: patent US9671415B2, “Immunoassay for pyrrolidinophenones” (RANDOX LABORATORIES LIMITED, priority 2014, dated 2017)
Converted amounts (≈) assume the structure as drawn. “And” between values parts separate entries of the source, which are not always exact repeats. Identical values can stand only once. Counter-ions that a name gives are not always drawn.

Key:
α-PVP antibody = test: α-PVP/MDPV ELISA kit validation assay (Example 11); assay type: binding; settings: for % Cross-Reactivity: α-PVP/MDPV ELISA kit specificity, relative to α-PVP = 100, Table 10; for % CR: calculated with reference to the standard of that run; for Reactant IC50: standard concentration which produced 50% B/B0 in that run
Procedure: A microtitre plate was precoated with α-PVP antibody. α-PVP (antigen), if present in the sample competes with the horseradish peroxidase labelled α-PVP (enzyme labelled antigen) for a limited number of antibody sites on the microtitre plate. After incubation at room temperature to allow a competition reaction to take place, the microtitre plate was washed to remove excess reagents. The enzyme substrate was added. After an incubation period to allow maximum colour development, the colour reaction was stopped by the addition of acid. This produces a colour change from blue to yellow, and the absorbances are read at 450 nm. A standard curve was then constructed to determine the α-PVP concentration in the sample.
2. Urine samples were diluted 1:50 with diluent (I.e. 10 μl sample+490 μl diluent).
• 1. Whole blood samples were diluted 1:50 with diluent (i.e. 10 μl sample+490 μL diluent). • 2. The sample was mixed gently by pipetting without the formation of foam. Procedure
The assay was performed in duplicate. The layout of Table 4 was used where each box represents 2 wells:
a) Table 5 details what was pipetted into the appropriate wells of the microtitre plate:
b) The microtitre plate was gently tapped from side to side for a few seconds. c) The microtitre plate was covered with a plate sealer before incubating for 30 minutes at room temperature (+15° C. to +25° C.) in the dark. d) The plate was inverted and the liquid tapped out liquid. e) The plate was washed 6 times with diluted wash buffer (ensuring all wells were filled), over a 10-15 minute period. After the final wash the liquid was discarded liquid and the plate was tapped onto lint free tissue paper until completely dry. f) Immediately after washing, one 125 μl shot of substrate was pipetted into each well using a multichannel pipette. The microtitre plate was gently tapped from side to side and incubated for 20±2 minutes at room temperature (+15 to +25° C.) in the dark. g) The colour reaction was stopped by the addition of 100 μl of stop solution per well. A colour change from blue to yellow resulted. h) The optical density was measured at 450 nm within 10 minutes of stopping the colour reaction. The use of a 630 nm filter was used as the reference wavelength. […] Assay Cut-Off
Equally, pyrrolidinopentiothiophenone and mdpbp were assessed in the same run; and mdppp and α-pyrrolidinopropiophenone were assessed in the same run. […] The Reactant IC50s (i.e. ^2 in the table above) are the standard concentrations which produced 50% B/B0 in that run. The % CR (last column in the table above) is calculated with reference to the standard used in that particular run.

Antibody-1B = test: Competitive ELISA for pyrrolidinophenones, Antibody-1B with Tracer-1 (Example 10); assay type: binding, sheep; settings: Antibody-1B coated at 2.5 μg/ml, Tracer-1 at 1/128k; for IC50 / % Cross-Reactivity: Table 2; for % Cross-Reactivity: relative to α-PVP = 100
Procedure: The purified polyclonal antibody from Example 9 (Antibody-1B) was immobilised on a 96 well ELISA plate at 2.5 μg/ml in 10 mM TRIS buffer, pH 8.5 overnight at 4° C. The assay is based on competition for binding sites of a polyclonal antibody between HRP tracer (Tracer-1) and α-PVP or potential cross-reactants. The plate was washed (×3) with TBST (Tris-Buffered Saline/Tween solution) and the calibrator (α-PVP) or potential cross reactants added (50 μl per well), followed by HRP tracer (Tracer-1) (75 μl/well) to the appropriate wells. The plates were then incubated for 60 minutes at 25° C. They were then subjected to 2 quick wash cycles using TBST, followed by 4×2 minute wash cycles. 125 μl of signal (TMB) was then added to each well for 20 mins at room temperature in the dark. The reaction was stopped by the addition of 125 μl of 0.2 M sulphuric acid per well and the plates read immediately at 450 nm. Calibration curves were generated using α-PVP and these were used to determine the sensitivity and specificity of the immunoassay for potential cross-reactants. The data was inputted to a computer program called KC Junior (Biotek). It gives a 4 parameter fit curve and allows the calculation of concentrations between the standard runs. This program is used to calculate the IC50 values by dividing the 0 ng/ml optical density (OD) value by 2 and obtaining the concentration value from the curve for this OD. The results of this study are presented in Tables 1 and 2, cross-reactivity being calculated according to the following formula: % CR=[…]/IC50 CR×100 wherein % CR is the percentage cross-reactivity, IC50 α-PVP is the concentration of α-PVP which causes 50% displacement of signal and IC50 CR is the concentration of potential cross-reactant that causes 50% displacement of signal.
Antibody-1B (Example 9) used to generate the data in the tables below was raised from Immunogen-1B (Example 7) and the HRP tracer (Tracer-1) was prepared as in Example 8. All of the compounds in Table 2 are commercially available from suppliers such as Cayman Chemical (Ann Arbor, Mich., USA).

Antibodies in EP2626358 = settings: immunoassay of EP2626358; cited from earlier work
[1] = unit not given, Table 11, in ng/mL

| SMILES | % Cross-Reactivity (α-PVP antibody) | % CR (α-PVP antibody; Table 11) | Reactant IC50 (α-PVP antibody; [1]) | IC50 (Antibody-1B) | % Cross-Reactivity (Antibody-1B) | also measured |
| --- | --- | --- | --- | --- | --- | --- |
| CCCCC(C(=O)c1ccc(C)cc1)N1CCCC1 (stereo not drawn) [4′-Methyl-α-pyrrilidinohexylphenone] | 38.1% |  |  |  |  |  |
| CCCC(C(=O)c1cccs1)N1CCCC1 (stereo not drawn) [α-Pyrrolidinopentiothiophenone HCl, α-Pyrrolidinopentiothiophenone] | 73.2% | 73.2% | 0.246 |  |  |  |
| CCCC(C(=O)c1ccc2c(c1)OCO2)N1CCCC1 (stereo not drawn) [MDPV, 3′,4′-Methylenedioxy-α-pyrrolidinopentiophenone] | 93.3% | 93.3% | 0.164 | 0.176 ng/mL (≈ 0.639 nM) | 178.977% |  |
| CNC(C)C(=O)c1ccc(OC)cc1 (stereo not drawn) [Methedrone] | <1% |  |  |  |  |  |
| CCCC(NC)C(=O)c1ccc2c(c1)OCO2 (stereo not drawn) [Pentylone, 1-(1,3-benzodioxol-5-yl)-2-(methylamino)pentan-1-one] | <1% |  |  |  |  |  |
| CCCC(C(=O)c1ccc2ccccc2c1)N1CCCC1 (stereo not drawn) [Naphyrone, 1-(naphthalen-2-yl)-2-(pyrrolidin-1-yl)pentan-1-one] | 70.2% | 70.2% | 0.218 | 0.221 ng/mL (≈ 0.785 nM) | 142.534% |  |
| CCCC(C(=O)c1ccc(C)cc1)N1CCCC1 (stereo not drawn) [Pyrovalerone, 4-Methyl-α-pyrrolidinopentiophenone] | 125.4% | 125.4% | 0.122 | 0.168 ng/mL (≈ 0.685 nM) | 187.500% |  |
| CCCCCCC(C(=O)c1ccc(F)cc1)N1CCCC1.Cl (stereo not drawn) [4-Fluoro-PV9 HCl, 1-(4-fluorophenyl)-2-(pyrrolidin-1-yl)octan-1-one, monohydrochloride] | 3.2% |  |  |  |  |  |
| CCC(C(=O)c1ccc2c(c1)OCO2)N1CCCC1 (stereo not drawn) [MDPBP, 3′,4′-Methylenedioxy-α-pyrrolidinobutiophenone] | 17.2% | 17.2% | 1.044 | 1.532 ng/mL (≈ 5.86 nM) | 20.561% |  |
| CC(C(=O)c1ccc2c(c1)OCO2)N1CCCC1 (stereo not drawn) [3′,4′-Methylenedioxy-α-pyrrolidinopropiophenone] | 0.8% | 0.8% | 17.727 |  |  |  |
| Cc1ccc(C(=O)C(C)N2CCCC2)cc1 (racemic) [4′-Methyl-α-pyrrolidinopropiophenone] | 1.8% |  |  | >10 ng/mL | <3.150% |  |
| CCCCCC(C(=O)c1ccc(OC)cc1)N1CCCC1.Cl (stereo not drawn) [4-Methoxy-PV8 HCl, 1-(4-methoxyphenyl)-2-(pyrrolidin-1-yl)heptan-1-one, hydrochloride] | 11.7% |  |  |  |  |  |
| CNC(C)C(=O)c1ccc2c(c1)OCO2 (stereo not drawn) [Methylone] | <1% |  |  |  |  |  |
| CNC(C)C(=O)c1ccc(C)cc1 (stereo not drawn) [Mephedrone] | <1% |  |  |  |  |  |
| CCCC(C(=O)c1ccc(OC)cc1)N1CCCC1 (stereo not drawn) [4-Methoxy-α-pyrrolidinopentiophenone, 4′-Methoxy-α-pyrrolidinopentiophenone] |  |  |  | 0.233 ng/mL (≈ 0.891 nM) | 135.193% |  |
| CCC(C(=O)c1ccc(C)cc1)N1CCCC1 (stereo not drawn) [4′-Methyl-α-pyrrolidinobutiophenone] | 23.2% |  |  |  |  |  |
| CCCC(C(=O)c1ccccc1)N1CCCC1 (stereo not drawn) [α-PVP, α-Pyrrolidinovalerophenone] | 100% | 100% | 0.153 | 0.315 ng/mL (≈ 1.36 nM) | 100% | STD IC50 (α-PVP antibody; IC50 of the standard (alpha-pvp) in the same run as the reactant of the line, unit not given, Table 11, in ng/mL): 0.18 and 0.153 and 0.149; IC50 (standard concentration which produces 50% B/B0) (Antibody-1B; standard α-PVP, Table 1): 0.315 ng/mL (≈ 1.36 nM); cross-reactivity (Antibodies in EP2626358): very low |
| CCC(NC)C(=O)c1ccc2c(c1)OCO2 (stereo not drawn) [Butylone, 1-(1,3-benzodioxol-5-yl)-2-(methylamino)butan-1-one] | <1% |  |  |  |  |  |
| CNC(C)C(=O)c1ccc(F)cc1 (stereo not drawn) [4-Fluoromethcathinone, 4-fluoro-N-methylcathinone] | <1% |  |  |  |  |  |
| CC(C(=O)c1ccccc1)N1CCCC1 (stereo not drawn) [α-Pyrrolidinopropiophenone] | 0.8% | 0.8% | 18.744 | >10 ng/mL | <3.150% |  |
